Measurements reported in PMC9440176, “Novel benzylidene benzofuranone analogues as potential anticancer agents: design, synthesis and in vitro evaluation based on CDK2 inhibition assays” (3 Biotech, 2022).

How the values were obtained:
[1] = ABTS.+ radical scavenging assay
Experimental: The assay was performed in a 96-well plate by serial dilution method. A 2 mM ABTS^.+ working solution was prepared in a phosphate buffer (Zheleva-Dimitrova et al [2010]).To this, 200 μL of aqueous potassium per sulfate (70 mM) solution was added and the solution was incubated for 24 h in the dark at room temperature to develop a blue-green color. To 30 μL of ABTS^.+ working solution, 50 μL of different concentrations (3.9–1000 μM) of the test sample solution and 170 μL of phosphate buffer (pH-7.4) were added in a well. The plate was then incubated in the dark at room temperature for 10 min. Then absorbance was measured at 690 nm using Elisa reader. Quercetin and ascorbic acid were used as standards. The percentage scavenging of ABTS^.+ was calculated using the formula, (Control Absorbance–Test Absorbance)*100/(Control Absorbance) and the anti-oxidant activity was expressed in terms of IC50 value.

MCF-7 = experiment: MTT cytotoxicity assay on MCF-7; format: cell-based; conditions: 24 h, read-out: Inhibition of cell proliferation, IC50, MCF-7
Experimental: (§1) The monolayer cell culture was trypsinized and the cell count was adjusted to 5.0 × 10^5 cells/ml using respective media containing 10% FBS. To each well of the 96-well microtiter plate, 100 µL of the diluted cell suspension (50,000cells/well) was added. After 24 h, when a partial monolayer was formed, the supernatant was flicked off, the monolayer was then washed once again with the medium and 100 µL of different test concentrations of test drugs were added on to the partial monolayer in microtiter plates. The plates were then incubated at 37 °C for 24 h in 5% CO2 atmosphere. After incubation, the test solutions in the wells were discarded and 100 µL of MTT (5 mg/10 ml of MTT in PBS) was added to each well. The plates were then incubated for 4 h at 37 °C in 5% CO2 atmosphere. The supernatant was then removed and 100 µL of DMSO was added and the plates were gently shaken to solubilize the formed formazan. The absorbance was measured using a microtiter plate reader at a wavelength of 590 nm. The percentage growth inhibition was thus calculated using the following formula and the concentration of the test drug required to inhibit the cell growth by 50% (IC50) values is generated from the dose–response curves for each one of the cell lines (Meerloo et al. [2011]).
(§2) The test compounds were screened for their in vitro cytotoxicity by MTT assay against two cancer cell lines, namely MCF-7, HCT-116 and normal epithelial kidney cells (Vero). Doxorubicin was used as a reference standard.

HCT 116 = experiment: MTT cytotoxicity assay on HCT 116; format: cell-based, Human; conditions: 24 h, read-out: Inhibition of cell proliferation, IC50, HCT 116
Experimental: as §1, §2

[2] = test system: normal epithelial kidney cells (Vero); experiment: MTT cytotoxicity assay on Vero; format: cell-based; conditions: 24 h, read-out: Inhibition of cell proliferation, IC50, Vero
Experimental: as §1, §2

HCT 116 cells = experiment: Apoptotic DNA fragmentation study; format: cell-based, Human
Experimental: Cells were seeded at a concentration of 1 × 10^6 per 35 mm dish and incubated at 37 °C/5% CO2 for 24 h. The confluent cells grown after 24 h of incubation were treated with sample concentrations at 10 μg/ml, 20 μg/ml and control (without sample). After the treatment, cells were trypsinized and both the adherent as well as floating cells were collected by centrifugation at 2000 rpm for 5 min. The cell pellet was later suspended in 0.5 ml lysis buffer (pH 7.8) [Tris–HCl 10 mM, pH 8; EDTA 20 mM, pH 8.0; TritonX-100 0.2% and 4 M NaCl], vortexed vigorously and incubated at 50 °C for 5 min. To the lysate, 0.5 ml of phenol: chloroform: isoamylalcohol was added and mixed for about 2–3 min. Further, it was centrifuged at 10,000 rpm for 15 min at 4 °C.The upper aqueous layer was taken in another tube to which, twice the volume of cold 100% ethanol was added along with 3 M sodium acetate (Final concentration of sodium acetate 0.3 M). It was incubated for 5–10 min at room temperature. Further, centrifuged again at 10,000 rpm for 20 min. After removing the supernatant, the DNA pellet was washed in 70% ethanol and centrifuged at 5000 rpm for the next 10 min. The supernatant was removed, the DNA pellet was air dried and was finally dissolved in TE buffer (Tris–HCl 10 mM, pH 7.4, EDTA 1 mM, pH 8.0) and separated by 2% agarose gel electrophoresis at 100 V for 50 min.

HCT-116 cells = experiment: Apoptosis detection by propidium iodide / Annexin V-FITC; format: cell-based, Human; design: FACS analysis of apoptosis detection, Viable cells / FACS analysis of apoptosis detection, Early apoptotic / FACS analysis of apoptosis detection, Late apoptotic / FACS analysis of apoptosis detection, Necrotic: unit not given here
Experimental: The day before induction of apoptosis, 1 × 10^6cells per well were plated on a 6-well plate using respective media with 10% FBS and 1% PenStrep, incubated overnight at 37 °C at 5% CO2.The media was replaced with test solutions of different concentrations in the media containing 10% FBS. The treated cells were incubated for 24 h at normal culture conditions. The cells were further harvested and the well contents were completely transferred into the sterile FACS tubes. The cell contents were centrifuged at 2000 rpm for 5 min and the supernatant was discarded. After centrifugation, the cells were washed twice with cold PBS and then resuspended in 1 ml of binding buffer at a concentration of 1× 10^6 cells/ml. […] of the cell suspension (5× 10^5 cells) were then transferred into a fresh FACS tube (Vermes et al. [1995]). Further, cells were gently mixed with […] of propidium iodide and […] of Annexin V before being incubated for 20 minutes at room temperature in the dark. The cells were immediately analyzed by flow cytometer within a duration of an hour.

## COc1ccc(/C=C2\Oc3c(c(OC)cc(OC)c3C3=CCN(C(C)C)CC3)C2=O)cc1OC [NISOA4]
[1]
  IC50: 127 ± 12.5 µM
MCF-7
  IC50: 35.6 µM
HCT 116
  IC50: 21.2 µM
[2]
  IC50: > 200 µM
HCT 116 cells; 12.5 μM
  DNA fragmentation on agarose gel: smearing
HCT 116 cells; 25 μM
  DNA fragmentation on agarose gel: fragmentation in the form of DNA laddering
HCT-116 cells; 12.5 µM
  FACS analysis of apoptosis detection, Early apoptotic: 6.36
  FACS analysis of apoptosis detection, Late apoptotic: 28.95
  FACS analysis of apoptosis detection, Necrotic: 9.61
  FACS analysis of apoptosis detection, Viable cells: 55.08
HCT-116 cells; 25 µM
  FACS analysis of apoptosis detection, Early apoptotic: 0.17
  FACS analysis of apoptosis detection, Late apoptotic: 52.11
  FACS analysis of apoptosis detection, Necrotic: 24.06
  FACS analysis of apoptosis detection, Viable cells: 23.66
